Test results: US8940789B2, “Neurite elongation agent, memory-improving agent and anti-Alzheimer agent comprising 4′-demethylnobiletin or 4′-demethyltangeretin as active ingredient, and process for production of the compound” (Fuji Sangyo Co., Ltd., priority 2009, dated 2015)

Legend:
[1] = test system: nitric oxide (NO), inducible nitric oxide synthase (iNOS), and cyclooxygenase-2 (COX-2); conditions: synthesized demethylated compounds compared with nobiletin per se; Non Patent Literature 3; cited from earlier work
Neuro2a = experiment: Neurite elongation activity in Neuro2a neurocytes; assay type: cell-based; conditions: 20 μM, observed under microscope two days after addition, compared with comparative controls nobiletin and tangeretin
Procedure: The conversion compound 1, i.e., an isolated product of 4′-demethylnobiletin, and the conversion compound 2, i.e., an isolated product of 4′-demethyltangeretin, both obtained in Example 3 above were used to study neurite elongation activities. Neuro2a was used as a neurocyte.
First, Neuro2a cells were cultured in DMEM medium containing 10% fetal bovine serum (FBS) in a 37° C. incubator with 5% CO2. The cells were subcultured every three days.
Then, the cells were inoculated in a 24′-well cell culture plate at 2×10^4/well using DMEM medium containing 5% FBS. Three hours after subculture, various test samples were added each at a concentration of 20 μM. 4′-demethylnobiletin (the product in Example 3), 4′-demethyltangeretin (the product in Example 3), nobiletin (a comparative control), and tangeretin (a comparative control) dissolved in ethanol were used as the test samples. As a control, only ethanol was used.
Then, two days after addition of the various test samples, neurite elongation activities were observed under microscope. FIG. 4 show picture images for comparing the neurite elongation activities exerted by the various test samples in cultures.

| SMILES | effect of preventing development of cancer by suppressing synthesis of NO, iNOS and COX-2 [1] | neurite elongation activity (Neuro2a) |
| --- | --- | --- |
| COc1c(OC)c(OC)c2c(=O)cc(-c3ccc(O)c(O)c3)oc2c1OC [3′,4′-didemethylnobiletin] | drastically higher effect than nobiletin |  |
| COc1ccc(-c2cc(=O)c3c(OC)c(OC)c(OC)c(OC)c3o2)cc1O [3′-demethylnobiletin] | drastically higher effect than nobiletin |  |
| COc1cc(-c2cc(=O)c3c(OC)c(OC)c(OC)c(OC)c3o2)ccc1O [4′-demethylnobiletin] | drastically higher effect than nobiletin | significant neurite elongation activities |
| COc1c(OC)c(OC)c2c(=O)cc(-c3ccc(O)cc3)oc2c1OC [4′-demethyltangeretin] |  | significant neurite elongation activities |
